We go through one compound from patent US10800806B2, “Sterol derivatives and use thereof for treating diseases involving transformed astrocyte cells or for treating malignant haemopathies” (BETA INNOV, priority 2012, dated 2020).

Assay [1] has as its system prostate cancer cells (ATCC-HTB-81). As to the kind of experiment: Activity in vitro on prostate cancer cells. It counts as cell-based, human. Particulars: 30 μM, ethanolic form. How it is done: They were obtained from ATCC (ref. ATCC-HTB-81). The culture medium is the same as that used for the liver cancer lines. The doubling time is 60 h. • Breast cancer cells
(§1) The cancer cells used are from liver (ref. ATCC-HB-8065), prostate (ref. ATCC-HTB-81), breast (ref. ATCC-HTB-19) cancer cells, and from colon cancer cells (ECACC-HT29/219) of human origin, mentioned above.

For assay [2], the system named is Neuroblastoma (line SH-SY5Y, ATCC-CRL-2266). As to the kind of experiment: Activity in vitro on human neuroblastomas. Particulars: 22 μM once, concentrated liposomal form, 7 days of treatment. It counts as cell-based. How it is done: They were obtained from the ATCC collection (Ref. ATCC-CRL-2266). The culture conditions are based on the recommendations in the ATCC information leaflet. • Chronic Myelomonocytic Leukaemia (CMML)
The neuroblastomas were treated with empty liposomes (controls) or with liposomes containing molecule 1.b or 2.b, 24 h after starting the culture. The cells are treated once with 22 μM of molecule 1.b or 22 μM of molecule 2.b. The liposomal form is concentrated.
For the control cells, the upper left hand photograph marked with the letter A was taken after 7 days of treatment; the lower left hand photograph marked with the letter B was taken after 28 days of treatment.
For the cells treated with the concentrated liposomal molecule 1.b, the photograph marked with the letter C (in the middle, at the top) was taken after 7 days of treatment and the photograph marked with the letter D (in the middle, at the bottom) after 28 days of treatment. For the cells treated with the concentrated liposomal molecule 2.b, the upper right hand photograph marked with the letter E was taken after 7 days of treatment.

Assay [3] has as its system partially purified LDH from human GBM lines (U87-MG). As to the kind of experiment: Inhibition of LDH activity, in gel assay after IEF. It counts as biochemical. Particulars: ethanolic form, 36 mM. As to the method:
(§2) Next, the LDH activities and their inhibition were detected by the “in gel assay” technique (25). The source of activity used was LDH LL and LDH, partially purified, from human GBM lines U87-MG (LDH GBM). “In gel assay” detection was carried out after isoelectric focusing (IEF) on electrophoresis gels of the LDH LL and LDH GBM samples.
The cells collected in phosphate buffer (50 mM, Ph 7.2.Pi) undergo several freeze (−20° C.)/thaw cycles and the cellular material is homogenized. After centrifugation at 10,000 g for 45 min at 4° C., the supernatant is collected and aliquots containing 10% glycerol (v:v) are frozen at −80° C. At the desired time, the aliquots, after thawing, are chromatographed on a filtration column (Biogel P-60, BioRad) prepared in Pi. The volume of gel is 9 ml and the inside diameter of the column is 0.4 cm. Elution is carried out at atmospheric pressure. […]
(§3) The LDH activity is detected by the lactate/NAD/MTT/phenazine methosulphate system (formation of a precipitate of the formazan type in the IEF gel); this system is described in reference (25). […]
(§4) The activity of LDH is detected by the “in gel assay” technique on IEF electrophoresis gels, which were described in the section “A/ PROTOCOLS 6)” (25); the precision of this technique is 0.2 unit of pH. The activity of LDH is detected by a dark blue precipitate, of the formazan type, the site where LDH activity is located.

For assay [4], the system named is LDH from Lactobacillus leichmannii (LL). As to the kind of experiment: Inhibition of LDH activity, in gel assay after IEF. In kind it is biochemical. Particulars: ethanolic form, 36 mM. How it is done: The measurements of the activity of LDH and of its inhibition by a routine inhibitor, oxamate (23), were validated by the spectrometric method (24) using the purified LDH of Lactobacillus leichmannii (LL) (Sigma) as standard.
as §2
The mini-gels of 7.5 (T %) and of 2.6 (C %) are poured into Pi with the Ampholines (BioRad) making it possible to form a pH gradient in the range from 7 to 5 after pre-focusing in a cold chamber. The containers used are of the mini-protean 3 type (BioRad). […]
as §3, §4

For assay [5], the system named is white blood cells from a patient suffering from CMML. The assay is described as follows: Activity in vitro on Chronic Myelomonocytic Leukaemia (CMML) cells. Particulars: 10 μM once, improved liposomal form, 72 h of treatment. It counts as cell-based, human. As to the method: The cells purified from blood samples of patients suffering from Chronic Myelomonocytic Leukaemia (CMML) were obtained by the Clinical Haematology Centre and the Biotherapy Centre of the Saint Eloi Hospital (CHU de Montpellier). Culture was carried out by the technique of seeding on a feed layer. […] The CMML cells were cultured on cell lines originating from human embryo spinal cord (17).
The white blood cells are isolated from a blood sample collected from a patient suffering from CMML. The cells are treated once with 10 μM of molecule 2.b in improved liposomal form 24 hours after culturing by seeding on a feed layer (17).
The controls are cells treated with empty liposomes: the upper left hand photograph marked with the letter A was taken after 48 h of treatment and the lower left hand photograph with the letter B after 72 h of treatment.
For the cells treated with 2.b, the upper right hand photograph marked with the letter C was taken after 48 h of treatment and the lower right hand photograph with the letter D after 72 h of treatment.

Assay [6] concerns liver cancer cells (ATCC-HB-8065). As to the kind of experiment: Activity in vitro on liver cancer cells. It counts as cell-based, human. Particulars: 30 μM, ethanolic form. As to the method: They were obtained from ATCC (ref. ATCC-HB-8065). The culture medium consists of MEM (Gibco, USA; ref. 51200) and 10% (v/v) FCS. The doubling time is 60 h. • Prostate cancer cells
as §1

In the case of `CC(=O)OC1C=C2CC(OC(=O)C3COC(C)(C)O3)CCC2(C)C2CCC3(C)C(C(C)CCCC(C)C)CCC3C12` (stereo not drawn) [Molecule 2.b, 7-acetoxy-10,13-dimethyl-17-(6-methylheptan-2-yl)-2,3,4,7,8,9,10,11,12,13,14,15,16,17-tetradecahydro-1H-cyclopenta[a]phenanthren-3-yl 2,2-dimethyl-1,3-dioxolane-4-carboxylate], the “effect on cellular division and respiration” value in assay [1] and in assay [6] was “no effect” throughout. For the same compound, the “toxicity to neuroblastoma cells compared to the control cells” value in assay [2] is recorded as “no viable cell is observed”. Also, the “inhibition of the enzymatic activity of LDH GBM” value in assay [3] is listed as “partially”. The “inhibition of the enzymatic activity of LDH LL” value in assay [4] was “almost completely”. Moreover, in assay [5], the “effect on cell multiplication relative to the control” value is “Cell multiplication is slowed considerably”.
